We go through 14 molecules from US20230303493A1, “ANTIBACTERIAL ADJUVANTS AND APPLICATIONS THEREOF” (THE TRUSTEES OF PRINCETON UNIVERSITY, priority 2020, published 2023).

pIC50: −log10 of the molar value.

For orientation: pIC50 means the negative decadic logarithm of the IC50, by convention in mol/L.

In one assay the test system is P. aeruginosa PA14. In words: IC50 of compounds in conjunction with colistin relative to P. aeruginosa (growth, absorbance at 600 nm). It counts as cell-based. To be noted: Pseudomonas aeruginosa, PA14, 17 h. Here is the method: Various compounds of formula I in Example 1 above were tested to determine IC50 of the compounds in conjunction with colistin relative to P. aeruginosa. IC50 testing of the compounds was conducted to the following protocol. Overnight cultures of P. aeruginosa PA14 were back diluted into fresh LB to an OD600 of 2.5×10^−3. Using polypropylene 96 well plates (Corning 3879), the potential antibiotic adjuvant was assayed with a 3-fold dilution starting with a […]. The concentration of colistin was held constant at sublethal concentration ([…]), using a freshly prepared colistin stock and minimizing transfers of colistin-containing solutions. After 17 h of aerobic growth at 37° C., 300 rpm, the absorbance at 600 nm was recorded.
Molecule `C#Cc1ccc(OCCCCCC(=O)Nc2ccnc(C(F)(F)F)c2)cc1` [Compound S20, 6-(4-Ethynylphenoxy)-N-(2-(trifluoromethyl)pyridin-4-yl)hexanamide] had a pIC50 of 4.81.

Still in this assay, the particulars now being: Pseudomonas aeruginosa; P. aeruginosa PA14 in LB; colistin held constant at sublethal concentration (0.25 to 0.375 pg/mL); 3-fold dilution starting with a 250 concentration; 17 h aerobic growth at 37° C.; absorbance at 600 nm; read-out: IC50.
Regarding `CSc1ccc(OCCCCCC(=O)Nc2ccnc(C(F)(F)F)c2)cc1` [Compound S17, 6-(4-(Methylthio)phenoxy)-N-(2-(trifluoromethyl)pyridin-4-yl)hexanamide], the pIC50 was 4.85.
Consider `C#Cc1ccccc1OCCCCCC(=O)Nc1ccnc(C(F)(F)F)c1` [Compound S22, 6-(2-Ethynylphenoxy)-N-(2-(trifluoromethyl)pyridin-4-yl)hexanamide], for which the pIC50 is 4.81.
For `CC(C)(C)c1ccc(OCCCCCC(=O)Nc2ccnc(C(F)(F)F)c2)cc1` [Compound S27, 6-(4-(tert-Butyl)phenoxy)-N-(2-(trifluoromethyl)pyridin-4-yl)hexanamide], the pIC50 is 5.59.
The same measure, in the same setting: to `CC(C)(C)c1cccc(OCCCCCC(=O)Nc2ccnc(C(F)(F)F)c2)c1` [Compound S28, 6-(3-(tert-Butyl)phenoxy)-N-(2-(trifluoromethyl)pyridin-4-yl)hexanamide] belongs 6.10; to `O=C(CCCCCOc1ccc(C(=O)OCc2ccccc2)cc1)Nc1ccnc(C(F)(F)F)c1` [Compound S30, Benzyl 4-((6-oxo-6((2-(trifluoromethyl)pyridin-4-yl)amino)hexyl)oxy)benzoate], 5.59; to `CC(=O)c1ccccc1OCCCCCC(=O)Nc1ccnc(C(F)(F)F)c1` [Compound S32, 6-(2-Acetylphenoxy)-N-(2-(trifluoromethyl)pyridin-4-yl)hexanamide], 4.24.
In the case of `COC(=O)c1ccc(OCCCCCC(=O)Nc2ccnc(C(F)(F)F)c2)cc1` [Compound S34, Methyl 4-((6-oxo-6-((2-(trifluoromethyl)pyridin-4-yl)amino)hexyl)oxy)benzoate], the pIC50 is 4.06.
For the molecule `O=C(CCCCCOc1ccc2ccccc2c1)Nc1ccnc(C(F)(F)F)c1` [Compound S38, 6-(Naphthalen-2-yloxy)-N-(2-(trifluoromethyl)pyridin-4-yl)hexanamide], the pIC50 was 5.59.
Consider `O=C(CCCCCOc1cccc2ccccc12)Nc1ccnc(C(F)(F)F)c1` [Compound S39, 6-(Naphthalen-1-yloxy)-N-(2-(trifluoromethyl)pyridin-4-yl)hexanamide], for which the pIC50 is 4.82.
For `O=C(CCCCCN1CCN(c2ccccc2)CC1)Nc1ccnc(C(F)(F)F)c1` [Compound S40, 6-(4-Phenylpiperazin-1-yl)-N-(2-(trifluoromethyl)pyridin-4-yl)hexanamide], the pIC50 was 4.30.
For `O=C(CCCCCN1CCN(c2ccccn2)CC1)Nc1ccnc(C(F)(F)F)c1` [Compound S41, 6-(4-(Pyridin-2-yl)piperazin-1-yl)-N-(2-(trifluoromethyl)pyridin-4-yl)hexanamide], the negative-log IC50 (pIC50) is 4.02.
`O=C(CCCCCN1CCN(c2cccnc2)CC1)Nc1ccnc(C(F)(F)F)c1` [Compound S42, 6-(4-(Pyridin-3-yl)piperazin-1-yl)-N-(2-(trifluoromethyl)pyridin-4-yl)hexanamide]: the pIC50 is 4.15.
As for `O=C(CCCCCN1CCN(c2ccncc2)CC1)Nc1ccnc(C(F)(F)F)c1` [Compound S43, 6-(4-(Pyridin-4-yl)piperazin-1-yl)-N-(2-(trifluoromethyl)pyridin-4-yl)hexanamide], the pIC50 is 4.12.
